Laboratory results taken from patent US20240109925A1, “Enhanced Anti-Proliferative and Antitumor Immune Effects of Mitochondria-Targeted Hydroxyurea” (The Medical College of Wisconsin, Inc., priority 2021, published 2024).

Key:
[1] = tested on: MiaPaCa-2 human pancreatic cancer cells; test: Cell proliferation, IncuCyte Live-Cell Analysis system; format: cell-based
Excerpt: FIG. 7. Effects of HU and Mito10-HU on proliferation of MiaPaCa-2 human pancreatic cancer cells; MiaPaCa-2 cells treated with HU or Mito10-HU were monitored in the IncuCyte Live-Cell Analysis system. Cell proliferation was monitored in real-time with the continuous presence of indicated treatments until the end of each experiment. Data shown are the means±SD.
The following cell lines were obtained from the American Type Culture Collection (Manassas, VA), where they were regularly authenticated: HCT116 (ATCC Cat #CRL-247, human colon cancer cells) and MiaPaCa-2 (ATCC Cat #CRL-1420, human pancreatic cancer cells). All cells were cultured in a humidified incubator at 37° C. and 5% carbon dioxide. HCT116 cells were maintained in RPMI 1640 medium (Thermo Fisher Scientific, Cat #11875), supplemented with 10% fetal bovine serum. MiaPaCa-2 cells were maintained in Dulbecco's Modified Eagle Medium (Thermo Fisher Scientific, Waltham, MA; Cat #11965) supplemented with 10% fetal bovine serum. All cells were stored in liquid nitrogen and used within 20 passages after thawing.
The IncuCyte Live-Cell Analysis system (Essen Bioscience Inc., Ann Arbor, MI) was used to monitor cell proliferation (Cheng et al., 2013, 2016; Boyle et al., 2018). As shown in previous publications (Cheng et al., 2013, 2016), this imaging system is probe-free and noninvasive, and enables continuous monitoring of cell confluence over several days. The increase in the percentage of cell confluence was used as a surrogate marker of cell proliferation. In a 96-well plate, cells were plated at 1,000 cells per well in triplicates and left to adhere overnight. Cells were then treated with HU and Mito-HUs, and the cell confluency was recorded over several days in the IncuCyte Live-Cell Analysis system.

[2] = tested on: HCT116 human colon cancer cells; test: Cell proliferation (cell confluence), IncuCyte Live-Cell Analysis system; format: cell-based

| Compound | inhibition of proliferation of MiaPaCa-2 cells [1] | potency compared with HU in inhibiting MiaPaCa-2 cell proliferation [1] [times] | antiproliferative effect, each alone (AZD-3965 experiment) ([2]; Mito10-HU (5 μM) or AZD-3965 (100 μM) independently, HCT-116) | effect on cell proliferation, each alone (syrosingopine experiment) ([2]; Mito10-HU (5 μM) or syrosingopine (7.5 μM) independently, HCT116) |
| --- | --- | --- | --- | --- |
| NC(=O)NOCCCCCCCCCC[P+](c1ccccc1)(c1ccccc1)c1ccccc1.O=C([O-])C(F)(F)F [Mito10-HU, 10-[(carbamoylamino)oxy]-decyltriphenylphosphonium trifluoroacetate] | increasing antiproliferative potencies | ~100 | negligible antiproliferative effects | minimally affected cell proliferation |
| NC(=O)NOCCCCCCCCCCCC[P+](c1ccccc1)(c1ccccc1)c1ccccc1.O=C([O-])C(F)(F)F [Mito12-HU, 12-[(carbamoylamino)oxy]-dodecyltriphenylphosphonium trifluoroacetate] | increasing antiproliferative potencies | – | – | – |
| NC(=O)NOCCCCCCCCCCCCCCCC[P+](c1ccccc1)(c1ccccc1)c1ccccc1.O=C([O-])C(F)(F)F [Mito16-HU, 16-[(carbamoylamino)oxy]-hexadecyltriphenylphosphonium trifluoroacetate] | increasing antiproliferative potencies | – | – | – |
| NC(=O)NOCCCCCCCCCCCCCCCCCCCC[P+](c1ccccc1)(c1ccccc1)c1ccccc1.O=C([O-])C(F)(F)F [Mito20-HU, 20-[(carbamoylamino)oxy]-eicosanyltriphenylphosphonium trifluoroacetate] | increasing antiproliferative potencies | – | – | – |
